Measured values from patent US12370143B2, “Compound or salt thereof and lipid particles” (FUJIFILM Corporation, priority 2018, dated 2025).
Read-outs that look alike come from different tables or passages of the source.

Columns and labels:
[1] = tested on: DMS273 cells constantly expressing Luc; test: Target reporter protein (Luc) knockdown in cell, reporter protein assay; type: cell-based; details: Homo sapiens, DMS-273
Procedure: The nucleic acid lipid particles prepared by the same method as that in <Preparation of nucleic acid lipid particles> by using the compounds described in Table 3 were evaluated by reporter assay by the following method.
By using pGL4.50 Luc2 (E1310 Promega), DMS273 cells (human small cell lung cancer) (European Collection of Authenticated Cell Cultures) constantly expressing Luc were prepared. RPMI (Gibco) (10% FBS (Gibco), 1% Penicillin-Streptomycin (Gibco), and 200 μg/mL Hygromycin (Wako)) was used as a culture medium. DMS273 cells (2.0×10^3) constantly expressing luciferase (Luc) were seeded in a 96-well plate and cultured in a 5% CO2 incubator for 24 hours, and then the medium was replaced. Then, 10 μL of each of the dispersion liquids of lipid particles diluted with PBS (Gibco) to yield a concentration of 1 to 1,000 nmol/L was added to the 96-well plate, and the final concentration was adjusted to 0.1 to 100 nmol/L (total amount of liquid: 110 μl). Thereafter, the cells were cultured in a 5% CO2 incubator for 24 hours, the medium was then replaced, and the cells were further cultured for 24 hours.
After the viable cell count was determined, the expression amount of Luc was quantified using a Steady Glo assay kit (Promega), and the knockdown efficiency was calculated according to the following equation. Then, the IC50 concentration at which the expression amount of Luc was knocked down to 50% was calculated.

[2] = tested on: Factor VII (FVII) protein; test: Measurement of Factor VII (FVII) protein in mouse plasma after FVII-siRNA lipid particles; type: in vivo, C57BL6/J mice; details: 0.1 mg/kg caudal vein, plasma 24 hours after administration, PBS group = 100%
Procedure: The Factor VII (FVII) protein was measured according to the method described in Nature Biotechnology (2010) 28, 172-176. C57BL6/J mice were randomly grouped (n=3). A dispersion liquid of nucleic acid lipid particles was prepared by the same method as that in <Preparation of nucleic acid lipid particles>, except that FVII-siRNA having the sequence described in Molecular Therapy (2009) 17, p. 878 was used instead of Luc-siRNA. The dispersion liquid was administered to the caudal vein of the mice at a dosage of 0.1 mg/kg. For comparison, PBS at the same volume was administered to the caudal vein of the mice. Twenty four hours after the administration, blood was collected from the caudal vena cava, thereby obtaining plasma. The amount of FVII protein was quantified using the obtained plasma and a Biophen FVII assay kit (Aniara).
The FVII amount in the plasma sample of each individual in the PBS administration group was regarded as 100%, and the ratio of the FVII amount in the plasma sample of each individual to 100% was adopted as a measurement value.

[3] = Luc2-siRNA lipid particles using the compound, siRNA 0.1 to 100 nmol/L, concentration at which Luc expression is knocked down to 50%, read-out: IC50

| IC50 [1, 3] [nM] | Compound | Relative amount of FVII protein (%) [2] [%] | IC50 [1] [nM] |
| --- | --- | --- | --- |
| 14 | CCCCCCCC/C=C\CCCCCCCC(=O)OCCCCCCC(CCCCCCOC(=O)CCCCCCC/C=C\CCCCCCCC)OC(=O)OCCN(CC)CCN(CC)CC [Example 41, 7-(((2-((2-(diethylamino)ethyl)(ethyl)amino)ethoxy)carbonyl)oxy)tridecane-1,13-diyldioleate] | 18 | – |
| 43 | CCCCCCCC/C=C\CCCCCCCC(=O)OCCCCCCC(CCCCCCOC(=O)CCCCCCC/C=C\CCCCCCCC)OC(=O)OCCN(CCN(CC)CC)C(C)C [Example 48, 7-(((2-((2-(Diethylamino)ethyl)(isopropyl)amino)ethoxy)carbonyl)oxy)tridecane-1,13-diyldioleate] | 20 | – |
| 19 | CCCCCCCCC(CCCCCC)C(=O)OCCCCCCC(CCCCCCOC(=O)C(CCCCCC)CCCCCCCC)OC(=O)OCCN(CC)CCN(CC)CC (centres unmarked) [Example 56, 7-(((2-((2-(Diethylamino)ethyl)(ethyl)amino)ethoxy)carbonyl)oxy)tridecane-1,13-diylbis(2-hexyldecanoate)] | 3 | – |
| – | CCCCCCCCCC(CCCCCCC)C(=O)OCCCCCCC(CCCCCCOC(=O)C(CCCCCCC)CCCCCCCCC)OC(=O)OCCN(CC)CCN(CC)CC (centres unmarked) [Example 58, 7-(((2-((2-(Diethylamino)ethyl)(ethyl)amino)ethoxy)carbonyl)oxy)tridecane-1,13-diylbis(2-heptylundecanoate)] | 14 | – |
| – | CCN(CC)CCN(CC)CCOC(=O)OC(CCCCCCOC(=O)C(CCC(C)CC(C)(C)C)C(C)CC(C)(C)C)CCCCCCOC(=O)C(CCC(C)CC(C)(C)C)C(C)CC(C)(C)C (centres unmarked) [Example 59, 7-(((2-((2-(Diethylamino)ethyl)(ethyl)amino)ethoxy)carbonyl)oxy)tridecane-1,13-diylbis(2-(4,4-dimethylpentan-2-yl)-5,7,7-trimethyloctanoate)] | 10 | – |
| – | CCCCCCCCC(CCCCCC)C(=O)OCCCCCCC(CCCCCCOC(=O)C(CCCCCC)CCCCCCCC)OC(=O)OCCN(CCN(CC)CC)C(C)C (centres unmarked) [Example 62, 7-(((2-((2-(Diethylamino)ethyl)(isopropyl)amino)ethoxy)carbonyl)oxy)tridecane-1,13-diylbis(2-hexyldecanoate)] | 3 | – |
| – | CCCCCCCCC(CCCCCCCC)CC(=O)OCCCCCCC(CCCCCCOC(=O)CC(CCCCCCCC)CCCCCCCC)OC(=O)OCCN(CC)CCN(CC)CC [Example 65, 7-(((2-((2-(Diethylamino)ethyl)(ethyl)amino)ethoxy)carbonyl)oxy)tridecane-1,13-diylbis(3-octylundecanoate)] | 11 | – |
| 22 | CCCCCCC(CCCCCC)CC(=O)OCCCCCCC(CCCCCCOC(=O)CC(CCCCCC)CCCCCC)OC(=O)OCCN(CC)CCN(CC)CC [Example 67, 7-(((2-((2-(Diethylamino)ethyl)(ethyl)amino)ethoxy)carbonyl)oxy)tridecane-1,13-diylbis(3-hexylnonanoate)] | 5 | – |
| – | CCCCCCCC(CCCCCCC)CC(=O)OCCCCCCC(CCCCCCOC(=O)CC(CCCCCCC)CCCCCCC)OC(=O)OCCN(CC)CCN(CC)CC [Example 70, 7-(((2-((2-(diethylamino)ethyl)(ethyl)amino)ethoxy)carbonyl)oxy)tridecane-1,13-diylbis(3-heptyldecanoate)] | 6 | 24 |
| – | CCCCCCCCC(CCCCCC)C(=O)OCCCCCC(CCCCCOC(=O)C(CCCCCC)CCCCCCCC)OC(=O)OCCN(CC)CCN(CC)CC (centres unmarked) [Example 71, 6-(((2-((2-(Diethylamino)ethyl)(ethyl)amino)ethoxy)carbonyl)oxy)undecane-1,11-diylbis(2-hexyldecanoate)] | 4 | – |
| – | CCCCCCCCC(CCCCCC)C(=O)OCCCCC(CCCCOC(=O)C(CCCCCC)CCCCCCCC)OC(=O)OCCN(CC)CCN(CC)CC (centres unmarked) [Example 73, 5-(((2-((2-(Diethylamino)ethyl)(ethyl)amino)ethoxy)carbonyl)oxy)nonane-1,9-diylbis(2-hexyldecanoate)] | 1 | 24 |
